Results as given in ChEMBL document CHEMBL1145873, “Acylsulfonamide-containing PTP1B inhibitors designed to mimic an enzyme-bound water of hydration” (Bioorg Med Chem Lett, 2003).

Legend:
[1] = target: T1, Tyrosine-protein phosphatase non-receptor type 1 (Homo sapiens, UniProt P18031); assay: Inhibitory concentration towards recombinant human Protein-tyrosine phosphatase 1B was determined
T1 sequence (P18031 whole entry): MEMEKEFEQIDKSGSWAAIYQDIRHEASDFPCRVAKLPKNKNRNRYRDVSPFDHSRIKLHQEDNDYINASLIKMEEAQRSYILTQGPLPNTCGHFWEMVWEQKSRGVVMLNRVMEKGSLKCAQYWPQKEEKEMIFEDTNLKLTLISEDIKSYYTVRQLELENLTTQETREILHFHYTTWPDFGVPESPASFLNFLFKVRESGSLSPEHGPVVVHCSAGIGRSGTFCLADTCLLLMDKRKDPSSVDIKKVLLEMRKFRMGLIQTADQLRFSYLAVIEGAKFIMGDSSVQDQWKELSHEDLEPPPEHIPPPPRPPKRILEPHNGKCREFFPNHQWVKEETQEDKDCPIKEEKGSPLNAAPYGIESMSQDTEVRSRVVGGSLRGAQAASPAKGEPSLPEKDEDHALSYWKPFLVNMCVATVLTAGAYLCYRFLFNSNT

[2] = target: T1, Tyrosine-protein phosphatase non-receptor type 1; assay: Binding affinity towards recombinant human Protein-tyrosine phosphatase 1B was determined

| SMILES | IC50 [1] [µM] | Ki [2] [µM] |
| --- | --- | --- |
| O=C(NS(=O)(=O)Cc1ccccc1)c1ccc2cc(C(F)(F)P(=O)(O)O)ccc2c1 | 24 | – |
| O=C(NS(=O)(=O)c1cc(C2(O)NC(=O)c3ccccc32)ccc1Cl)c1ccc2cc(C(F)(F)P(=O)(O)O)ccc2c1 (stereo not given) | 25 | – |
| O=C(NS(=O)(=O)c1ccccc1)c1ccc2cc(C(F)(F)P(=O)(O)O)ccc2c1 | 30 | – |
| CS(=O)(=O)NC(=O)c1ccc2cc(C(F)(F)P(=O)(O)O)ccc2c1 | 41 | 17 |
| CCN1CCCC1CNC(=O)c1cc(S(=O)(=O)NC(=O)c2ccc3cc(C(F)(F)P(=O)(O)O)ccc3c2)ccc1OC (stereo not given) | 46 | – |

Stronger by IC50 [1], values ahead:

| IC50 [1] [µM] | Ki [2] [µM] | SMILES |
| --- | --- | --- |
| 20 | – | CC1Cc2ccccc2N1NC(=O)c1ccc(Cl)c(S(=O)(=O)NC(=O)c2ccc3cc(C(F)(F)P(=O)(O)O)ccc3c2)c1 (stereo not given) |
| 19 | – | C[C@@H]1CCC[C@H](C)N1NC(=O)c1ccc(Cl)c(S(=O)(=O)NC(=O)c2ccc3cc(C(F)(F)P(=O)(O)O)ccc3c2)c1 |
| 18 | – | CCCCCCCCCC(=O)Nc1ccc(S(=O)(=O)NC(=O)c2ccc3cc(C(F)(F)P(=O)(O)O)ccc3c2)cc1 |
| 0.35 | – | CCCCCCCCCCCCCCCCOc1ccc(S(=O)(=O)NC(=O)c2ccc3cc(C(F)(F)P(=O)(O)O)ccc3c2)cc1[N+](=O)[O-] |
